Measured values from US9902733B2, “Furopyridines as inhibitors of protein kinases” (MASARYKOVA UNIVERZITA, priority 2014, dated 2018).

Assays:
Format in all cases: biochemical
CLK4 (h) = target: T1, CLK4 (h) (Homo sapiens, UniProt Q9HAZ1); assay: CLK4 KinaseProfiler radiometric protein kinase assay; settings: 15 μM ATP, 40 minutes at room temperature
T1 construct: purchased Merck Millipore (KinaseProfiler service)
Description: (§1) In vitro essays were performed by the company Merck Millipore in their KinaseProfiler radiometric protein kinase assay as paid commercial service. The compounds IC50 values for inhibition of individual protein kinases were determined. Dose-response curves were plotted from inhibition data generated, each in duplicate, from 10 point serial dilutions of inhibitory compounds. Concentration of compound was plotted against % kinase activity. To generate IC50 values, the dose-response curves were fitted to a standard sigmoidal curve and IC50 values were derived by standard nonlinear regression analysis.
(§2) All tested compounds were prepared in 100% DMSO to final assay concentrations either 0.5 mM (for the concentration row A, see below) or 0.05 mM (for the concentration row B). This working stock of the compound was added to the assay well as the first component in the reaction, followed by the remaining components as detailed below. The stock solution was added to the individual assay wells in such amounts that the concentrations of the compound were either in the row A (0.001 μM, 0.003 μM, 0.01 μM, 0.03 μM, 0.1 μM, 0.3 μM, 1.0 μM, 3.0 μM, and 10.0 μM) or in the row B (0.0001 μM, 0.0003 μM, 0.001 μM, 0.003 μM, 0.01 μM, 0.03 μM, 0.1 μM, 0.3 μM, and 1.0 μM). There was no pre-incubation step between the compound and the kinase prior to initiation of the reaction.
(§3) The positive control wells contained all components of the reaction, except the compound of interest; however, DMSO (at a final concentration of 2%) was included in these wells to control for solvent effects. The blank wells contained all components of the reaction, with staurosporine as a reference inhibitor replacing the compound of interest. This abolished kinase activity and established the base-line (0% kinase activity remaining).
CLK4 (h) was diluted in the buffer (20 mM MOPS, 1 mM EDTA, 0.01% Brij-35, 5% Glycerol, 0.1% β-mercaptoethanol, 1 mg/mL BSAs) to the concentration of 1.01 mg/mL prior to addition to the reaction mix.
The above stock solution of CLK4(h) was added to a mixture containing 8 mM MOPS pH 7.0, 0.2 mM EDTA, and 200 μM […](p) EDEEE in such amount that the resulting concentration of CLK4(h) was 140.8 nM. This mixture was added to the stock solution of the tested compound. The reaction was initiated by the addition of the MgATP mix in such amount that the resulting concentration of Mg acetate in the reaction mixture was 10 mM and [γ-^33P-ATP] (specific activity approx. 500 cpm/pmol) was 15 μM. After incubation for 40 minutes at room temperature, the reaction was stopped by the addition of 3% phosphoric acid solution. 10 μL of the reaction was then spotted onto a P30 filtermat and washed three times for 5 minutes in 75 mM phosphoric acid and once in methanol prior to drying and scintillation counting.

HIPK1(h) = target: T2, HIPK1(h) (Homo sapiens, UniProt Q86Z02); assay: HIPK1 KinaseProfiler radiometric protein kinase assay; settings: 45 μM ATP, 40 minutes at room temperature
T2 construct: purchased Merck Millipore (KinaseProfiler service)
Description: as §1, §2, §3
HIPK1(h) was diluted in the buffer (20 mM MOPS, 1 mM EDTA, 0.01% Brij-35, 5% Glycerol, 0.1% β-mercaptoethanol, 1 mg/mL BSAs) to the concentration of 1.01 mg/mL prior to addition to the reaction mix.
(§4) The above stock solution of HIPK1(h) was added to a mixture containing 8 mM MOPS pH 7.0, 0.2 mM EDTA, and 0.33 mg/mL myelin basic protein in such amount that the resulting concentration of HIPK1(h) was 4.7 nM. This mixture was added to the stock solution of the tested compound. The reaction was initiated by the addition of the MgATP mix in such amount that the resulting concentration of Mg acetate in the reaction mixture was 10 mM and [γ-^33P-ATP] (specific activity approx. 500 cpm/pmol) was 45 μM. After incubation for 40 minutes at room temperature, the reaction was stopped by the addition of 3% phosphoric acid solution. 10 μL of the reaction was then spotted onto a P30 filtermat and washed three times for 5 minutes in 75 mM phosphoric acid and once in methanol prior to drying and scintillation counting.

HIPK3(h) = target: T3, HIPK3(h) (Homo sapiens, UniProt Q9H422); assay: HIPK3 KinaseProfiler radiometric protein kinase assay; settings: 15 μM ATP, 40 minutes at room temperature
T3 construct: purchased Merck Millipore (KinaseProfiler service)
Description: as §1, §2, §3
HIPK3(h) was diluted in the buffer (20 mM MOPS, 1 mM EDTA, 0.01% Brij-35, 5% Glycerol, 0.1% β-mercaptoethanol, 1 mg/mL BSAs) to the concentration of 1.01 mg/mL prior to addition to the reaction mix.
as §4, with “HIPK3(h)” for “HIPK1(h)”, “1.0” for “0.33”, “6.4” for “4.7”, “15” for “45”, “10 μL of the reaction was then spotted onto a P30 filtermat and washed three times for 5 minutes in 75 mM phosphoric acid and once in methanol prior to drying and scintillation counting.” left out

HIPK2(h) = target: T4, HIPK2(h) (Homo sapiens, UniProt Q9H2X6); assay: HIPK2 KinaseProfiler radiometric protein kinase assay; settings: 10 μM ATP, 40 minutes at room temperature
T4 construct: purchased Merck Millipore (KinaseProfiler service)
Description: as §1, §2, §3
HIPK2(h) was diluted in the buffer (20 mM MOPS, 1 mM EDTA, 0.01% Brij-35, 5% Glycerol, 0.1% β-mercaptoethanol, 1 mg/mL BSAs) to the concentration of 1.01 mg/mL prior to addition to the reaction mix.
as §4, with “HIPK2(h)” for “HIPK1(h)”, “1.4” for “4.7”, “10” for “45”

T4 sequence (Q9H2X6 whole entry): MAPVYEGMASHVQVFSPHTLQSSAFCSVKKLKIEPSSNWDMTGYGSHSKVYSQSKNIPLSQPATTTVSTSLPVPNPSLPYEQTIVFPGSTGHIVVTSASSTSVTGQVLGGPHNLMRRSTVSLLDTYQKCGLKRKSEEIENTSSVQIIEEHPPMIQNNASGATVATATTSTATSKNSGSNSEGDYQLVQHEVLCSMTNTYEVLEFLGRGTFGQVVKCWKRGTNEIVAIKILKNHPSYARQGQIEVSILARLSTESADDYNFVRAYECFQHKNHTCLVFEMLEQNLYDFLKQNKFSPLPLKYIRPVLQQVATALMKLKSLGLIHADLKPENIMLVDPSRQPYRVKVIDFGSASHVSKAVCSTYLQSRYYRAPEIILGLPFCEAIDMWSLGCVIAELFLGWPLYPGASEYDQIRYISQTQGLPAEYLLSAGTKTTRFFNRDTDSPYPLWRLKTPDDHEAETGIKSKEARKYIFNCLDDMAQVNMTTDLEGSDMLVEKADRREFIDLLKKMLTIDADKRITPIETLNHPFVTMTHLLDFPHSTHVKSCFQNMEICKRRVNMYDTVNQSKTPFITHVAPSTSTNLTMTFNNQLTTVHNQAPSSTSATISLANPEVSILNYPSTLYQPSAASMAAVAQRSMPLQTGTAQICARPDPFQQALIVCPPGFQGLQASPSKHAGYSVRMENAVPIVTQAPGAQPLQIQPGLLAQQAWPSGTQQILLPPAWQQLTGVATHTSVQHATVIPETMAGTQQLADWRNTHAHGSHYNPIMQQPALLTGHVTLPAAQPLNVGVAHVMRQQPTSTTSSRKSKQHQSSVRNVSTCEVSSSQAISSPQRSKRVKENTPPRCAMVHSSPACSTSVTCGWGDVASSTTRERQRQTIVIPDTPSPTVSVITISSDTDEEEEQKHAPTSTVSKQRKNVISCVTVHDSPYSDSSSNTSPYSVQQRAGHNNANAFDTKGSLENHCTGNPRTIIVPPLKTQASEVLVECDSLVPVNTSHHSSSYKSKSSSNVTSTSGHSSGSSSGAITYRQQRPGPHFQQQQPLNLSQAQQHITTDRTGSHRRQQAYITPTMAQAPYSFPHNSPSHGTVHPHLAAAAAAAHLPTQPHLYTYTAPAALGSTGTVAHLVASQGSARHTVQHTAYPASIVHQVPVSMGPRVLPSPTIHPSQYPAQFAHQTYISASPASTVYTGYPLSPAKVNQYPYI
T1 sequence (Q9HAZ1 whole entry): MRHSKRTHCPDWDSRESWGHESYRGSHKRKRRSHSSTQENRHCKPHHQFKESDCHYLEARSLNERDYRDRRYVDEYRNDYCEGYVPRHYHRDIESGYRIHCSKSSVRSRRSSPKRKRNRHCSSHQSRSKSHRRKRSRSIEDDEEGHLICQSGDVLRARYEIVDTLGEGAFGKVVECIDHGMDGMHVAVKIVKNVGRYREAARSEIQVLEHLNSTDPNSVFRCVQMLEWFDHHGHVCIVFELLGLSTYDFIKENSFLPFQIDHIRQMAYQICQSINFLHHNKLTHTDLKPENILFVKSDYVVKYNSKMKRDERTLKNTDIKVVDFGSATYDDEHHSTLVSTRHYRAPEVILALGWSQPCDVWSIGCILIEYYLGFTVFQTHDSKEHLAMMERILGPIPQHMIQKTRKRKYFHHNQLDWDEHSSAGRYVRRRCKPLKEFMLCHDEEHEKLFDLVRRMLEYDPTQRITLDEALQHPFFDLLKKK
T2 sequence (Q86Z02 whole entry): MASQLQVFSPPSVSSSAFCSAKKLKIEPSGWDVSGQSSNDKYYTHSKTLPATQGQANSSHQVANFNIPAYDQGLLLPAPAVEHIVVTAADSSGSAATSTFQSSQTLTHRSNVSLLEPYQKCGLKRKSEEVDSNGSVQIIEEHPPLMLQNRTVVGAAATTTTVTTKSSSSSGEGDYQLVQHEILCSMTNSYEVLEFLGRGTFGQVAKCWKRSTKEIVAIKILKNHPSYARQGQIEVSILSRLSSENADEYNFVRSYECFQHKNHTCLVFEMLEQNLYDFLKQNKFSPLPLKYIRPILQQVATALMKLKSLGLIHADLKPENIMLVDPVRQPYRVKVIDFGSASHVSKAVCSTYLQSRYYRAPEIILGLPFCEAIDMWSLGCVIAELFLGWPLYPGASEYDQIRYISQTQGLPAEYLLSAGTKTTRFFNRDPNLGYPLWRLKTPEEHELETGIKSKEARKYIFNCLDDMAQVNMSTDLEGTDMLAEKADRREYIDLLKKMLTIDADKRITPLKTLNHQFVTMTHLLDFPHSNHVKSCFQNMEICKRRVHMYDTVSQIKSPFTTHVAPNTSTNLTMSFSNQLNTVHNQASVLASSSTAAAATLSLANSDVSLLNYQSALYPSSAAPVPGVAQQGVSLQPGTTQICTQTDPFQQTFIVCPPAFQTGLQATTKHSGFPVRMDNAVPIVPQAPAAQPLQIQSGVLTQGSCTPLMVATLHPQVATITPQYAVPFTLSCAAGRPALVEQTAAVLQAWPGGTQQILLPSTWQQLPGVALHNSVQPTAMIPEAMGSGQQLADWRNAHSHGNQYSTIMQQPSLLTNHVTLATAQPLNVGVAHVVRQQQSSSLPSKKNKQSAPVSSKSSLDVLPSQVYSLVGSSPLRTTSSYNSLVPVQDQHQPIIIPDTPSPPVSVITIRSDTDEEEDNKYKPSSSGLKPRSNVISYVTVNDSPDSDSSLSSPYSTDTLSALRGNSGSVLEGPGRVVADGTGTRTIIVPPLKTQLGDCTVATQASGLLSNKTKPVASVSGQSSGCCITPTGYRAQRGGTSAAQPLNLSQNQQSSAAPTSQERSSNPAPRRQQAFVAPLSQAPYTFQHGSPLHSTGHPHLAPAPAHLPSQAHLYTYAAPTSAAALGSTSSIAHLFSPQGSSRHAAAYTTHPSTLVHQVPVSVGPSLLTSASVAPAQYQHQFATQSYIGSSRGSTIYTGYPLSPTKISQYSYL
T3 sequence (Q9H422 whole entry): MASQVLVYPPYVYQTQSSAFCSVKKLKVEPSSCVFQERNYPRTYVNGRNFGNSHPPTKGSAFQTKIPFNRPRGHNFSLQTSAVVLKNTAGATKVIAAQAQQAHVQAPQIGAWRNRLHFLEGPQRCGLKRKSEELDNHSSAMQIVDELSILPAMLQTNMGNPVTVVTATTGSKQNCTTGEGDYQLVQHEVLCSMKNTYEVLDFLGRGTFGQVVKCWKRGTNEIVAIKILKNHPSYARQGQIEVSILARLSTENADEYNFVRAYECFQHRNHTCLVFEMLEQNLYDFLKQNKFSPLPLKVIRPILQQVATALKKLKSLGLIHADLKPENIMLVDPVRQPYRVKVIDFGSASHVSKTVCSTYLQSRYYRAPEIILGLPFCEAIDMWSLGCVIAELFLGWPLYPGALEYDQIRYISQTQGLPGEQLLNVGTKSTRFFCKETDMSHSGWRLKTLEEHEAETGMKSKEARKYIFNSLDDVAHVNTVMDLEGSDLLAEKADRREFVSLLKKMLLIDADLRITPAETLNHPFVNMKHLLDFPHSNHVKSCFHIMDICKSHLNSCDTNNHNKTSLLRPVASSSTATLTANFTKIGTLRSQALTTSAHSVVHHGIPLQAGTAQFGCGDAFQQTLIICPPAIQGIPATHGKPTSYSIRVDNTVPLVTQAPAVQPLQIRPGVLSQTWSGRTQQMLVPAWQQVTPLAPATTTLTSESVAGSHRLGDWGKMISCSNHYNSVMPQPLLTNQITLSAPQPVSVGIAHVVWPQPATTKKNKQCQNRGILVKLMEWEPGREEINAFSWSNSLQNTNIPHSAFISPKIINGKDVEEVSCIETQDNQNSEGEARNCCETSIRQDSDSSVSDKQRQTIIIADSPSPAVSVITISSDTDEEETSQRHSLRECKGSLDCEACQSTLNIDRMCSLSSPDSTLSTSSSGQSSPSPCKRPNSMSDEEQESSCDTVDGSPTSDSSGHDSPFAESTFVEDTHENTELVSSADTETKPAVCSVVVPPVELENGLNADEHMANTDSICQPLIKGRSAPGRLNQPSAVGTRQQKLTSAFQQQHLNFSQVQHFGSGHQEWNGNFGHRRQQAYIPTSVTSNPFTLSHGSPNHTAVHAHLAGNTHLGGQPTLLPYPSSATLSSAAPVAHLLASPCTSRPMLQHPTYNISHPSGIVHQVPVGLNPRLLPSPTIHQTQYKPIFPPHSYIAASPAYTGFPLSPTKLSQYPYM

IC50 (CLK4 (h)) | IC50 (HIPK1(h)) | IC50 (HIPK3(h)) | IC50 (HIPK2(h)) | SMILES
< 100 nM | < 1000 nM | < 5000 nM | < 1000 nM | Cn1cc(-c2ccc3occ(-c4ccccc4)c3n2)cn1 [Preparative Example 6A]
< 100 nM | < 100 nM | < 1000 nM | < 100 nM | c1ccc(-c2coc3ccc(-c4cn[nH]c4)nc23)cc1 [Preparative Example 9]
